Results from patent publication US4091102A, “Anti-depressant trans-hexahydropyrido[3,4-b]indoles” (Endo Laboratories, Inc., priority 1976, dated 1978).
Where two headings read alike, the source gives them in different places.

System: tetrabenazine-induced sedation and depression in mice
Test: Antagonism of tetrabenazine-induced depression in mice orally at 1 hour post-drug
Type: in vivo, Carworth CF1 S female mice
Details: Mus musculus, oral, 1 hour post-drug (30 minutes after tetrabenazine 32 mg/kg intraperitoneally)
Description: A standard procedure for detecting and comparing the antidepressant activity of compounds in this series for which there is good correlation with human efficacy is the prevention of tetrabenazine-induced sedation and depression in mice. (Everett, "The Dopa Response Potentiation Test and Its Use in Screening for Antidepressant Drugs", pp. 164-167 in "Antidepressant Drugs" [Proceedings of the First International Symposium], S. Garattini and M. N. G. Dukes, eds., 1967.). Groups of 10 Carworth CF1 S female mice, 18-21 g. each, were fasted 1.5 hours and were intubated with antagonist compounds at oral doses of 0, 5, 25, and 125 mg/kg or 0, 1, 3, 9, 27, and 81 mg/kg in 0.20 ml. of 1% Methocel (methylcellulose). The mice were challenged 30 minutes later with tetrabenazine (as the methane-sulfonate), 32 mg/kg intraperitoneally (dissolved in 0.20 ml. 0.05M KCl at pH 2.0). One hour after antagonist (30 minutes after tetrabenazine), the mice were examined for signs of exploratory activity and ptosis (eyelid closure). Normal exploratory activity (relief from sedation) was recorded when a mouse lifted by the tail from a group of 10 in a testing box and placed on a stainless steel testing box lid (12.5 × 8 inches with 0.33 inch mesh) either turned its head horizontally 30° in both directions or moved to the edge of the screen within 10 seconds after being placed on the screen. Relief from ptosis was recorded when exactly 2 seconds after placing the mouse facing the observer, lid closure was less than 50% in both eyes. The following table gives results. |ANTAGONISM OF TETRABENAZINE-INDUCED |DEPRESSION IN MICE ORALLY AT 1 HOUR |POST-DRUG

[1] = lid closure less than 50% in both eyes, read-out: ED50 for prevention of ptosis
[2] = relief from sedation (exploratory activity), read-out: ED50 for prevention of exploratory loss

| Structure (SMILES) | ED50 [1] | ED50 [2] |
| --- | --- | --- |
| CC1NCCC2c3ccccc3N(c3ccccc3)C12 (stereo not drawn) [Ig] | 25 mg/kg | 31 mg/kg |
| CCN1CCC2c3ccccc3N(c3ccccc3)C2C1C (stereo not drawn) [Ia] | 3 mg/kg | 4.2 mg/kg |
| CCC1C2C(CCN1CC)c1ccccc1N2c1ccccc1 (stereo not drawn) [If] | 27 mg/kg | 38 mg/kg |
| CCCN1CCC2c3ccccc3N(c3ccccc3)C2C1C (stereo not drawn) [Ic] | 14 mg/kg | 38 mg/kg |
| CC1C2C(CCN1C)c1ccccc1N2c1ccccc1 (stereo not drawn) [Ib] | 16 mg/kg | 38 mg/kg |
| CN(C)CCC=C1c2ccccc2CCc2ccccc21 [Amitriptyline, amitriptyline, reference compound] | 1.7 mg/kg | 4.7 mg/kg |
| CCN1CC2C(CC1C)c1ccccc1N2c1ccccc1 (stereo not drawn) [Ij] | < 5 mg/kg | < 5 mg/kg |
| CC(C)N1CCC2c3ccccc3N(c3ccccc3)C2C1C (stereo not drawn) [Id] | 11.2 mg/kg | 19 mg/kg |
| CCC1C2C(CCN1C)c1ccccc1N2c1ccccc1 (stereo not drawn) [Ie] | 9.1 mg/kg | 11.2 mg/kg |
